Data: US11254668B2, “Pyrazolo[1,5-A]pyrazin-4-yl and related derivatives” (Pfizer Inc., priority 2017, dated 2022)
Values belong to the compound of their own block, whether it stands above or below them.

What was measured:
Type in all cases: biochemical
JAK2 = JAK2 (Homo sapiens (Human), UniProt O60674); assay: JAK Caliper Enzyme Assay at 1 mM ATP, JAK2
Summary of the method: (§1)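 Read-out is Caliper LabChip mobility-shift separation of phosphorylated from unphosphorylated fluorescent peptide after EDTA termination. Each JAK kinase domain (human, recombinant) runs at 1 mM ATP at room temperature, adjusted for 20–30% turnover. Inhibition is normalized to DMSO and positive-control wells and plotted against concentration.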

TYK2 = TYK2 (Homo sapiens (Human), UniProt P29597); assay: JAK Caliper Enzyme Assay at 1 mM ATP, TYK2
Chain of TYK2 (P29597 897-1176): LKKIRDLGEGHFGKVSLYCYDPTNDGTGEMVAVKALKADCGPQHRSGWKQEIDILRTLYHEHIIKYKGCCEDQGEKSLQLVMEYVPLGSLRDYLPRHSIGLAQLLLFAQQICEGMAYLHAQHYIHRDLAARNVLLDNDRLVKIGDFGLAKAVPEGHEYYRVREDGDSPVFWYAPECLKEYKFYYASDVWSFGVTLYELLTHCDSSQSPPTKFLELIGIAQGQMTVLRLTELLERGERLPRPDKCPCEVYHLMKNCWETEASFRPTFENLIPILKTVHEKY
Summary of the method: as §1

JAK1 = JAK1 (Homo sapiens (Human), UniProt P23458); assay: JAK Caliper Enzyme Assay at 1 mM ATP, JAK1
Chain of JAK1 (P23458 875-1153): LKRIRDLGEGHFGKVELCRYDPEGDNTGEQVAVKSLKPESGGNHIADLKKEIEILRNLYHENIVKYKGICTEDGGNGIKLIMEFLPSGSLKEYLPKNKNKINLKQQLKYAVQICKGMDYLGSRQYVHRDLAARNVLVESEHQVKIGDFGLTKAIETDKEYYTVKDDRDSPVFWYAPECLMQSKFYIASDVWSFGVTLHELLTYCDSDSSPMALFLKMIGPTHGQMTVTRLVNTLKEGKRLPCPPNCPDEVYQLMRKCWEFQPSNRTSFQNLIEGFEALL
Summary of the method: (§2)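 IC50 (nM) derived from percent conversion of fluorescently labelled peptide, measured by Caliper LabChip mobility-shift separation after EDTA stop. Each JAK family kinase domain (human, recombinant) run at 1 mM ATP and room temperature, conditions set to 20-30% product; DMSO wells define uninhibited baseline.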

JAK3 = JAK3 (Homo sapiens (Human), UniProt P52333); assay: JAK Caliper Enzyme Assay at 1 mM ATP, JAK3
Chain of JAK3 (P52333 822-1111): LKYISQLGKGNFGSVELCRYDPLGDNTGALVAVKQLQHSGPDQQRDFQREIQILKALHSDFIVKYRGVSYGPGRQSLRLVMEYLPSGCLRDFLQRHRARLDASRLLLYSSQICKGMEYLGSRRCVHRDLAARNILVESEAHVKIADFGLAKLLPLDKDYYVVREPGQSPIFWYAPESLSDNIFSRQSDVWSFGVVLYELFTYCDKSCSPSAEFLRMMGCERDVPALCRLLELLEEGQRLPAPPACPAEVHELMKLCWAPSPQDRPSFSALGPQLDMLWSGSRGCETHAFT
Summary of the method: as §2

Chain of JAK2 (O60674 849-1124): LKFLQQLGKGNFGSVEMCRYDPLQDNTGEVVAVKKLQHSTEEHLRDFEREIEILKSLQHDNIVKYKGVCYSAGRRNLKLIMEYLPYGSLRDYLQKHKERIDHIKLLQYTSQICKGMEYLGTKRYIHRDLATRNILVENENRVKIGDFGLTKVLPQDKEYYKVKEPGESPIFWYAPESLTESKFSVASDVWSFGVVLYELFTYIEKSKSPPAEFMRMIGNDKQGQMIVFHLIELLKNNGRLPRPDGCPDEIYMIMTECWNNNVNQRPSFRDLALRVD

SMILES: CO[C@H]1C[C@](CC#N)(n2ccc(-c3nc(-c4cn[nH]c4)cc4ncccc34)n2)C1 [Example 81, (trans-3-methoxy-1-{3-[7-(1H-pyrazol-4-yl)-1,6-naphthyridin-5-yl]-1H-pyrazol-1-yl}cyclobutyl)acetonitrile]
IC50 (JAK2): 2170 nM
IC50 (TYK2): 101 nM
IC50 (JAK1): 3090 nM
IC50 (JAK3): > 10000 nM

SMILES: CC(C)(O)[C@H]1C[C@@](CC#N)(n2ccc(-c3nc(-c4cn[nH]c4)cc4ncccc34)n2)C1 [Example 82, [cis-3-(2-hydroxpropan-2-yl)-1-{3-[7-(1H-pyrazol-4-yl)-1,6-naphthyridin-5-yl]-1H-pyrazol-1-yl}cyclobutyl]acetonitrile]
IC50 (JAK2): 2390 nM
IC50 (TYK2): 418 nM
IC50 (JAK1): 3580 nM
IC50 (JAK3): > 10000 nM

SMILES: C[C@]1(C#N)C[C@](CC#N)(n2ccc(-c3nc(-c4cn[nH]c4)cc4ncccc34)n2)C1 [Example 83, trans-3-(cyanomethyl)-1-methyl-3-{3-[7-(1H-pyrazol-4-yl)-1,6-naphthyridin-5-yl]-1H-pyrazol-1-yl}cyclobutanecarbonitrile]
IC50 (JAK2): 2450 nM
IC50 (TYK2): 410 nM
IC50 (JAK1): 2240 nM
IC50 (JAK3): > 10000 nM

SMILES: C[C@]1(C#N)C[C@@](CC#N)(n2ccc(-c3nc(-c4cn[nH]c4)cc4ncccc34)n2)C1 [Example 84, cis-3-(cyanomethyl)-1-methyl-3-{3-[7-(1H-pyrazol-4-yl)-1,6-naphthyridin-5-yl]-1H-pyrazol-1-yl}cyclobutanecarbonitrile]
IC50 (JAK2): 174 nM
IC50 (TYK2): 22 nM
IC50 (JAK1): 240 nM
IC50 (JAK3): > 10000 nM

SMILES: Cc1n[nH]cc1-c1cc2ncccc2c(-c2ccn(C3(CC#N)CN(S(C)(=O)=O)C3)n2)n1 [Example 88, [3-{3-[7-(3-methyl-1H-pyrazol-4-yl)-1,6-naphthyridin-5-yl]-1H-pyrazol-1-yl}-1-(methylsulfonyl)azetidin-3-yl]acetonitrile]
IC50 (JAK2): 875 nM
IC50 (TYK2): 60 nM
IC50 (JAK1): 1620 nM
IC50 (JAK3): > 10000 nM

SMILES: Cc1n[nH]cc1-c1cc2ncccc2c(-c2ccn([C@]3(CC#N)C[C@@H](C#N)C3)n2)n1 [Example 89, trans-3-(cyanomethyl)-3-{3-[7-(3-methyl-1H-pyrazol-4-yl)-1,6-naphthyridin-5-yl]-1H-pyrazol-1-yl}cyclobutanecarbonitrile]
IC50 (JAK2): 770 nM
IC50 (TYK2): 89 nM
IC50 (JAK1): 1320 nM
IC50 (JAK3): > 10000 nM

SMILES: N#CC[C@]1(n2ccc(-c3nc(-c4cn[nH]c4CO)cc4ncccc34)n2)C[C@H](C#N)C1 [Example 91, trans-3-(cyanomethyl)-3-(3-{7-[5-(hydroxymethyl)-1H-pyrazol-4-yl]-1,6-naphthyridin-5-yl}-1H-pyrazol-1-yl)cyclobutanecarbonitrile]
IC50 (JAK2): 160 nM
IC50 (TYK2): 34 nM
IC50 (JAK1): 562 nM
IC50 (JAK3): > 10000 nM

SMILES: CCN1CC(CC#N)(n2ccc(-c3nc(-c4c[nH]nc4N)cc4ncccc34)n2)C1 [Example 94, (3-{3-[7-(3-amino-1H-pyrazol-4-yl)-1,6-naphthyridin-5-yl]-1H-pyrazol-1-yl}-1-ethylazetidin-3-yl)acetonitrile]
IC50 (JAK2): 940 nM
IC50 (TYK2): 94 nM
IC50 (JAK1): 2100 nM
IC50 (JAK3): > 10000 nM

SMILES: CO[C@H]1C[C@](CC#N)(n2ccc(-c3nc(-c4c[nH]nc4N)cc4ncccc34)n2)C1 [Example 95, (trans-1-{3-[7-(3-amino-1H-pyrazol-4-yl)-1,6-naphthyridin-5-yl]-1H-pyrazol-1-yl}-3-methoxycyclobutyl)acetonitrile]
IC50 (JAK2): 354 nM
IC50 (TYK2): 22 nM
IC50 (JAK1): 1010 nM
IC50 (JAK3): > 10000 nM

SMILES: CO[C@H]1C[C@](CC#N)(n2ccc(-c3nc(-c4c[nH]nc4N)cc4ncccc34)n2)C1 [Example 96, (cis-1-{3-[7-(3-amino-1H-pyrazol-4-yl)-1,6-naphthyridin-5-yl]-1H-pyrazol-1-yl}-3-methoxycyclobutyl)acetonitrile]
IC50 (JAK2): 243 nM
IC50 (TYK2): 31 nM
IC50 (JAK1): 790 nM
IC50 (JAK3): > 10000 nM

SMILES: Cn1cc(-c2cc3ncccc3c(-c3ccn(C4(CC#N)CN(S(C)(=O)=O)C4)n3)n2)cn1 [Example 104, [3-{3-[7-(1-methyl-1H-pyrazol-4-yl)-1,6-naphthyridin-5-yl]-1H-pyrazol-1-yl}-1-(methylsulfonyl)azetidin-3-yl]acetonitrile]
IC50 (JAK2): 164 nM
IC50 (TYK2): 19 nM
IC50 (JAK1): 1380 nM
IC50 (JAK3): > 10000 nM

SMILES: CCS(=O)(=O)N1CC(CC#N)(n2ccc(-c3nc(-c4cnn(C)c4)cc4ncccc34)n2)C1 [Example 105, [1-(ethylsulfonyl)-3-{3-[7-(1-methyl-1H-pyrazol-4-yl)-1,6-naphthyridin-5-yl]-1H-pyrazol-1-yl}azetidin-3-yl]acetonitrile]
IC50 (JAK2): 174 nM
IC50 (TYK2): 39 nM
IC50 (JAK1): 1350 nM
IC50 (JAK3): 8090 nM

SMILES: CCCS(=O)(=O)N1CC(CC#N)(n2ccc(-c3nc(-c4cnn(C)c4)cc4ncccc34)n2)C1 [Example 106, [3-{3-[7-(1-methyl-1H-pyrazol-4-yl)-1,6-naphthyridin-5-yl]-1H-pyrazol-1-yl}-1-(propylsulfonyl)azetidin-3-yl]acetonitrile]
IC50 (JAK2): 895 nM
IC50 (TYK2): 138 nM
IC50 (JAK1): 5400 nM
IC50 (JAK3): > 10000 nM

SMILES: Cn1cc(-c2cc3ncccc3c(-c3ccn(C4(CC#N)CN(S(=O)(=O)C5CC5)C4)n3)n2)cn1 [Example 107, [1-(cyclopropylsulfonyl)-3-{3-[7-(1-methyl-1H-pyrazol-4-yl)-1,6-naphthyridin-5-yl]-1H-pyrazol-1-yl}azetidin-3-yl]acetonitrile]
IC50 (JAK2): 243 nM
IC50 (TYK2): 24 nM
IC50 (JAK1): 1010 nM
IC50 (JAK3): > 10000 nM

Now those with a lower IC50 (JAK2), led by results:

IC50 (JAK2): 103 nM
IC50 (TYK2): 30 nM
IC50 (JAK1): 166 nM
IC50 (JAK3): 5240 nM
SMILES: N#CC[C@]1(n2ccc(-c3nc(-c4cn[nH]c4)cc4ncccc34)n2)C[C@@H](c2ccn[nH]2)C1 [Example 85, [cis-3-(1H-pyrazol-5-yl)-1-{3-[7-(1H-pyrazol-4-yl)-1,6-naphthyridin-5-yl]-1H-pyrazol-1-yl}cyclobutyl]acetonitrile]

IC50 (JAK2): 126 nM
IC50 (TYK2): 32 nM
IC50 (JAK1): 269 nM
IC50 (JAK3): > 10000 nM
SMILES: Cc1n[nH]cc1-c1cc2ncccc2c(-c2ccn([C@]3(CC#N)C[C@H](C#N)C3)n2)n1 [Example 90, cis-3-(cyanomethyl)-3-{3-[7-(3-methyl-1H-pyrazol-4-yl)-1,6-naphthyridin-5-yl]-1H-pyrazol-1-yl}cyclobutanecarbonitrile]

IC50 (JAK2): 22 nM
IC50 (TYK2): 9 nM
IC50 (JAK1): 63 nM
IC50 (JAK3): 1850 nM
SMILES: N#CC[C@]1(n2ccc(-c3nc(-c4cn[nH]c4CO)cc4ncccc34)n2)C[C@@H](C#N)C1 [Example 92, cis-3-(cyanomethyl)-3-(3-{7-[5-(hydroxymethyl)-1H-pyrazol-4-yl]-1,6-naphthyridin-5-yl}-1H-pyrazol-1-yl)cyclobutanecarbonitrile]

IC50 (JAK2): 46 nM
IC50 (TYK2): 7 nM
IC50 (JAK1): 121 nM
IC50 (JAK3): 5060 nM
SMILES: CS(=O)(=O)N1CC(CC#N)(n2ccc(-c3nc(-c4c[nH]nc4N)cc4ncccc34)n2)C1 [Example 93, [3-{3-[7-(3-amino-1H-pyrazol-4-yl)-1,6-naphthyridin-5-yl]-1H-pyrazol-1-yl}-1-(methylsulfonyl)azetidin-3-yl]acetonitrile]

IC50 (JAK2): 6 nM
IC50 (TYK2): 5 nM
IC50 (JAK1): 12 nM
IC50 (JAK3): 735 nM
SMILES: N#CC[C@]1(n2ccc(-c3nc(-c4c[nH]nc4N)cc4ncccc34)n2)C[C@@H](C#N)C1 [Example 97, cis-3-{3-[7-(3-amino-1H-pyrazol-4-yl)-1,6-naphthyridin-5-yl]-1H-pyrazol-1-yl}-3-(cyanomethyl)cyclobutanecarbonitrile]

IC50 (JAK2): 33 nM
IC50 (TYK2): 8 nM
IC50 (JAK1): 73 nM
IC50 (JAK3): 5250 nM
SMILES: N#CC[C@]1(n2ccc(-c3nc(-c4c[nH]nc4N)cc4ncccc34)n2)C[C@H](C#N)C1 [Example 98, trans-3-{3-[7-(3-amino-1H-pyrazol-4-yl)-1,6-naphthyridin-5-yl]-1H-pyrazol-1-yl}-3-(cyanomethyl)cyclobutanecarbonitrile]

IC50 (JAK2): 133 nM
IC50 (TYK2): 16 nM
IC50 (JAK1): 563 nM
IC50 (JAK3): > 10000 nM
SMILES: Cn1cc(-c2cc3ncccc3c(-c3ccn(C4(CC#N)CN(CC(F)(F)F)C4)n3)n2)cn1 [Example 99, [3-{3-[7-(1-methyl-1H-pyrazol-4-yl)-1,6-naphthyridin-5-yl]-1H-pyrazol-1-yl}-1-(2,2,2-trifluoroethyl)azetidin-3-yl]acetonitrile]

IC50 (JAK2): 71 nM
IC50 (TYK2): 14 nM
IC50 (JAK1): 425 nM
IC50 (JAK3): > 10000 nM
SMILES: Cn1cc(-c2cc3ncccc3c(-c3ccn(C4(CC#N)CN(CC#N)C4)n3)n2)cn1 [Example 100, 2,2′-(3-{3-[7-(1-methyl-1H-pyrazol-4-yl)-1,6-naphthyridin-5-yl]-1H-pyrazol-1-yl}azetidine-1,3-diyl)diacetonitrile]

IC50 (JAK2): 90 nM
IC50 (TYK2): 17 nM
IC50 (JAK1): 591 nM
IC50 (JAK3): 9610 nM
SMILES: Cn1cc(-c2cc3ncccc3c(-c3ccn([C@]4(CC#N)C[C@@H](C#N)C4)n3)n2)cn1 [Example 102, trans-3-(cyanomethyl)-3-{3-[7-(1-methyl-1H-pyrazol-4-yl)-1,6-naphthyridin-5-yl]-1H-pyrazol-1-yl}cyclobutanecarbonitrile]

IC50 (JAK2): 50 nM
IC50 (TYK2): 16 nM
IC50 (JAK1): 311 nM
IC50 (JAK3): 1590 nM
SMILES: Cn1cc(-c2cc3ncccc3c(-c3ccn(C4(CC#N)CN(S(N)(=O)=O)C4)n3)n2)cn1 [Example 108, 3-(cyanomethyl)-3-{3-[7-(1-methyl-1H-pyrazol-4-yl)-1,6-naphthyridin-5-yl]-1H-pyrazol-1-yl}azetidine-1-sulfonamide]
